Where a name gives a salt, the structure may show the parent alone.

Assay [1] has as its system Rat Intermittent Claudication Model. As to the kind of experiment: Rat intermittent claudication model (lauric acid injection): score for lower limb lesion. In kind it is in vivo, male SD rats. As to conditions: for Score for Lower Limb Lesion, After 1 day / Score for Lower Limb Lesion, After 3 days / Score for Lower Limb Lesion, After 7 days / Score for Lower Limb Lesion, After 14 days / Score for Lower Limb Lesion, After 21 days: score 0-5, formula (2) hydrochloride 3 mg/kg/day, pentoxifylline 60 mg/kg/day, oral; for Score for Lower Limb Lesion, After 1 day: after 1 day from lauric acid injection (baseline), control 4.0; for Score for Lower Limb Lesion, After 3 days / Score for Lower Limb Lesion, After 7 days / Score for Lower Limb Lesion, After 14 days: control 3.8; for Score for Lower Limb Lesion, After 21 days: control 3.4. The method, then:
(§1) Using an improved model of Corcico et al. (Corcico N. Cardiovasc. Drugs Ther., 1993, 7:241-251), male SD rats were made run on a rat treadmill (available from NATSUME SEISAKUSHO) at a speed of 10 m/min, followed by stepwise raising the running speed by 5 m/min every 3 minutes to thus determine the time (the maximum running time) required till the rats could not run any more and to thus evaluate the running ability of each animal. On the following day, these rats were anesthetized with pentobarbital and then 3.5 mg/ml of sodium laurate solution (available from SIGMA Company; dissolved in a 0.5% glucose aqueous solution) was injected into the right and left femoral arteries at a dose of 100 μl/leg to thus induce artificial intermittent claudication in the animals.
(§2) The same procedures used in Reference Example 2 were repeated using male SD rats (15 animals) to thus establish a rat intermittent claudication model. On the day following the lauric acid-injection, each animal was inspected for the maximum running time and these animals were divided into three groups so that the running abilities of these groups were almost identical to one another. To the first group (drug-administered group), there was orally administered, once a day, 3 mg/kg of hydrochloride of the compound represented by the formula (2) dissolved in distilled water over the term extending from the day following the lauric acid injection to 21st day, while 60 mg/kg of pentoxifylline (available from SIGMA Company) dissolved in distilled water was orally administered to the second group once a day as a comparative example. To the third group (control group), there was orally administered distilled water once a day. After 3, 7, 14 and 21 days from the lauric acid-injection, the maximum running time of each animal was determined to thus evaluate the recovery rate relative to the maximum walking time observed after the day following the lauric acid-injection (this was defined to be 100). In addition, the presence of any lesion on the limbs was simultaneously confirmed. The presence of any lesion on the lower limb was rated according to the following 6 evaluation criteria: 0: normal and all of the 5 toes could widely be opened; 1: limbs could look upward, but the toes could not be opened; 2: the limbs looked downward; 3: not less than 3 claws were necrosed; 4: not less than 3 toes were necrosed; and 5: not less than 3 toes were left out.

Assay [2] has as its system Rabbit Intermittent Claudication Model (injured limb of the high cholesterol chow-loaded rabbit). The assay is described as follows: Rabbit intermittent claudication model: recovery time of tissue oxygen saturation after exercise (near infrared spectrophotometer). In kind it is in vivo, male New Zealand White Rabbits. The conditions noted are these: for Recovery Time of Tissue Oxygen Saturation: 3 days after operation, injured limb, high cholesterol chow-loaded rabbit; for Effect on the recovery time of the tissue oxygen saturation (in words): vs control, drug of the invention 3 mg/kg, pentoxifylline 300 mg/kg, cilostazol 100 mg/kg, sarpogrelate hydrochloride 300 mg/kg. From the text:
To male New Zealand White Rabbits, there was given 1% cholesterol-containing RC4 (available from ORIENTAL KOBO Co., Ltd.) chow over 4 weeks (100 g/day/animal) to obtain a high cholesterol-loaded group (8 animals), while normal RC4 (available from ORIENTAL KOBO Co., Ltd.) chow was given to a group of such animals (normal feed-loaded group: 6 animals). The groins of these animals belonging to these two groups were incised in their supine position, under the anesthesia with ketamine and xylazine, followed by exposing the right femoral artery and then repeating, three times, the balloon injury treatment, which comprises the steps of inserting a Fogarty's balloon catheter in a length of 7 cm into the artery, expanding the balloon catheter to a diameter of 5 mm within the right iliac artery and then pulling out the catheter while the balloon catheter was still in the expanded state and finally ligating the right femoral artery. After 3 days from the operation, the both gluteal regions and the posterior of the lower limbs were dissected in the supine position of the animal under the anesthesia with ketamine and xylazine. The probe of a near infrared spectrophotometer was directly fitted to the interior of the both side gastrocnemius muscles, followed by application of electrical stimulation at 1 Hz to the sciatic nerves on both sides for 2 minutes as exercise loads.
After the application of exercise, these animals were kept quiet rest, followed by monitoring the process in which the degree of tissue oxygen saturation reduced during exercise was recovered, using an multi-wavelength-type near infrared spectrophotometer to thus obtain the time required for the recovery of the degree of tissue oxygen saturation in the both limbs. As such multi-wavelength-type near infrared spectrophotometer, there was used MCPD-2000 available from OTSUKA ELECTRONICS Co., Ltd., which had been improved in such a manner that the device could almost simultaneously detect the tissue oxygen saturation for the both side gastrocnemius muscles. In this respect, the distance between the light guide and detector of near infrared light rays was set at a level of 5 mm. A ½ recovered tissue oxygen saturation (½ StO2), which was an intermediate value of the tissue oxygen saturation observed after the application of the exercise (the minimum tissue oxygen saturation after exercise) and the tissue oxygen saturation observed after the recovery of exercise (the maximum tissue oxygen saturation after exercise) and then the recovery time was defined to be the time required for arriving at the level of ½ StO2 after the end of exercise-application.
To male New Zealand White Rabbits, there was given 1% cholesterol-containing RC4 (available from ORIENTAL KOBO Co., Ltd.) chow over 4 weeks (100 g/day/animal), followed by dividing these animals into two groups in such a manner that the total cholesterol levels in the plasma were identical to one another and then subjecting these two groups to treatments identical to those used in the foregoing model.
To these animals, there was orally administered, once a day, 1-formyl-N-(2-(4-(5H-dibenzo [a, d] cyclohepten-5-ylidene)-1-piperidinyl)) ethyl isonipecotic acid amide represented by the formula (2) after dissolving it in water in an amount of 3 mg/kg over the term extending from the day following the operation to the day on which the near infrared spectrophotometric measurement was initiated. On the other hand, distilled water was orally administered to the control group once a day. After 3 days from the operation, the recovery time of the tissue oxygen saturation after exercise was determined using a near infrared spectrophotometer.
The same procedures used in Example 1 were repeated except for using 300 mg/kg of pentoxifylline in place of the compound represented by the formula (2) to thus carry out the determination. […]

In assay [3] the test system is Rat Intermittent Claudication Model. The assay is described as follows: Rat intermittent claudication model (lauric acid injection): maximum running/walking time on treadmill. It counts as in vivo, male SD rats. The conditions noted are these: for Maximum Walking Time, recovery rate relative to day 1 (defined to be 100), After 1 day: after 1 day from lauric acid injection (baseline = 100); for Maximum Walking Time, recovery rate relative to day 1 (defined to be 100), After 1 day / Maximum Walking Time, recovery rate relative to day 1 (= 100), After 3 days / Maximum Walking Time, recovery rate relative to day 1 (= 100), After 7 days / Maximum Walking Time, recovery rate relative to day 1 (= 100), After 14 days / Maximum Walking Time, recovery rate relative to day 1 (= 100), After 21 days: formula (2) hydrochloride 3 mg/kg/day, pentoxifylline 60 mg/kg/day, oral; for Maximum Walking Time, recovery rate relative to day 1 (= 100), After 3 days: after 3 days from lauric acid injection, control 132; for Maximum Walking Time, recovery rate relative to day 1 (= 100), After 7 days: after 7 days from lauric acid injection, control 177; for Maximum Walking Time, recovery rate relative to day 1 (= 100), After 14 days: after 14 days from lauric acid injection, control 198; for Maximum Walking Time, recovery rate relative to day 1 (= 100), After 21 days: after 21 days from lauric acid injection, control 215. The protocol:
as §1
After 1, 3, 7, 14 and 21 days from the injection of the sodium laurate solution, the maximum running time was determined according to the method described above.
as §2

On to `O=CN1CCC(C(=O)NCCN2CCC(=C3c4ccccc4C=Cc4ccccc43)CC2)CC1` [Compound of Formula (2), 1-formyl-N-(2-(4-(5H-dibenzo[a,d]cyclohepten-5-ylidene)-1-piperidinyl))-ethyl-isonipecotic acid amide], for which, in assay [1], the “Score for Lower Limb Lesion, After 1 day” value is given as 4.0; the “Score for Lower Limb Lesion, After 3 days” value was 3.2; the “Score for Lower Limb Lesion, After 7 days” value came out at 2.2; the “Score for Lower Limb Lesion, After 14 days” value worked out at 1.7. Further, in assay [1], the “Score for Lower Limb Lesion, After 21 days” value stood at 1.5. In addition, the “Recovery Time of Tissue Oxygen Saturation” value in assay [2] (3 mg/kg orally once a day, control 3.8 ± 0.46) stood at 2.0 ± 0.40 min. Moreover, in assay [3], the “Maximum Walking Time, recovery rate relative to day 1 (defined to be 100), After 1 day” value worked out at 100; the “Maximum Walking Time, recovery rate relative to day 1 (= 100), After 3 days” value was 189; the “Maximum Walking Time, recovery rate relative to day 1 (= 100), After 7 days” value is 256; the “Maximum Walking Time, recovery rate relative to day 1 (= 100), After 14 days” value was found to be 252. Further, in assay [3], the “Maximum Walking Time, recovery rate relative to day 1 (= 100), After 21 days” value turned out to be 317.

On to `CC(=O)CCCCn1c(=O)c2c(ncn2C)n(C)c1=O` [Pentoxifylline, pentoxifylline], for which, in assay [1], the “Score for Lower Limb Lesion, After 1 day” value is recorded as 4.0; the “Score for Lower Limb Lesion, After 3 days” value was found to be 3.7; the “Score for Lower Limb Lesion, After 7 days” value turned out to be 3.7; the “Score for Lower Limb Lesion, After 14 days” value is on record as 3.3. In addition, the “Score for Lower Limb Lesion, After 21 days” value in assay [1] was determined as 2.5. Moreover, the “Effect on the development of lesions of the lower limbs (in words)” value in assay [1] (vs control group, formula (2) hydrochloride 3 mg/kg, pentoxifylline 60 mg/kg) is “the effect was still insufficient”. The “Recovery Time of Tissue Oxygen Saturation” value in assay [2] (300 mg/kg orally once a day, control 3.8 ± 1.28) is recorded as 7.1 ± 1.65 min. Further, in assay [2], the “Effect on the recovery time of the tissue oxygen saturation (in words)” value (“Effect on the recovery time” below) is “did not show any reduction in the recovery time”. Besides, in assay [3], the “Maximum Walking Time, recovery rate relative to day 1 (defined to be 100), After 1 day” value is recorded as 100; the “Maximum Walking Time, recovery rate relative to day 1 (= 100), After 3 days” value was 178; the “Maximum Walking Time, recovery rate relative to day 1 (= 100), After 7 days” value is recorded as 189; the “Maximum Walking Time, recovery rate relative to day 1 (= 100), After 14 days” value came out at 211. Moreover, in assay [3], the “Maximum Walking Time, recovery rate relative to day 1 (= 100), After 21 days” value is 249. Also, the “Effect on the maximum walking time (in words)” value in assay [3] (vs control group, formula (2) hydrochloride 3 mg/kg (after 7 days), pentoxifylline 60 mg/kg) was “had a tendency of increasing the maximum walking time”.

For `COc1cccc(CCc2ccccc2OCC(CN(C)C)OC(=O)CCC(=O)O)c1` (centres unmarked) [Sarpogrelate · HCl, sarpogrelate hydrochloride], the “Recovery Time of Tissue Oxygen Saturation” value in assay [2] (300 mg/kg (table) orally once a day, control 3.9 ± 1.08) is 3.4 ± 1.33 min. The “Effect on the recovery time” value in assay [2] is “did not show any reduction of the recovery time”.

On to `O=C1CCc2cc(OCCCCc3nnnn3C3CCCCC3)ccc2N1` [Cilostazol, cilostazol], for which, in assay [2] (100 mg/kg orally once a day, control 2.8 ± 0.97), the “Recovery Time of Tissue Oxygen Saturation” value came out at 3.5 ± 0.52 min. Also, in assay [2], the “Effect on the recovery time” value is on record as “does not show any substantial reduction of the recovery time”.

(Values after US6476049B2, “Therapeutic agent for intermittent claudication” (Ajinomoto Co., Inc., priority 1999, dated 2002).)
